These compounds were tested against T1, SimG AT domain (LD-AT) (Tolypocladium inflatum, UniProt Z9QNP6F7M4) (assay: intact protein MS, acyl-enzyme formation). Settings: covalent; active site Ser706; excess acyl-CoA; no ACP.
T1 construct: excised AT domain with flanking linker domain (LD), active-site Ser706; recombinant; borders only in ESI
T1 sequence (Z9QNP6F7M4 1-440): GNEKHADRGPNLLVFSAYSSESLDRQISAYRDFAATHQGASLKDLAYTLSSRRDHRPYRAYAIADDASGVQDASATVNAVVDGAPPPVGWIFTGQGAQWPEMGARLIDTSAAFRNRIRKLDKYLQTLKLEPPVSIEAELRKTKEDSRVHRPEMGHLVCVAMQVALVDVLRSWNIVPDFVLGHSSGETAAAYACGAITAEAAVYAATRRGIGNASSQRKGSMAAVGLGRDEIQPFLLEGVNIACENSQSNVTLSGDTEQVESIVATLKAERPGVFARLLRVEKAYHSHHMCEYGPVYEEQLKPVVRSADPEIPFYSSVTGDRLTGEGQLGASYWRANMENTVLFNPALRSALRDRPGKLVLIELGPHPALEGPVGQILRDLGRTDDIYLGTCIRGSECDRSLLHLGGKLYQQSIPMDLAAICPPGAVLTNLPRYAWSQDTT
Type: biochemical

Which “% loading of AT domain” value does the source give for `CC(=O)SCCNC(=O)CCNC(=O)[C@H](O)C(C)(C)COP(=O)(O)OP(=O)(O)OC[C@H]1O[C@@H](n2cnc3c(N)ncnc32)[C@H](O)[C@@H]1OP(=O)(O)O` [acetyl-CoA] here?
The value was 35.3 ± 0.9%.

Which “% loading of AT domain” value does the source give for `CC(C)(COP(=O)(O)OP(=O)(O)OC[C@H]1O[C@@H](n2cnc3c(N)ncnc32)[C@H](O)[C@@H]1OP(=O)(O)O)[C@@H](O)C(=O)NCCC(=O)NCCSC(=O)CC(=O)O` [malonyl-CoA] here?
The value was 64.5 ± 1.4%.

What follows are compounds tested against T1, SimG AT domain (LD-AT) (assay: intact protein MS, acyl-enzyme formation). Settings: covalent; active site Ser706.
Type: biochemical

For `CCCCCC(=O)SCCNC(=O)CCNC(=O)[C@H](O)C(C)(C)COP(=O)(O)OP(=O)(O)OC[C@H]1O[C@@H](n2cnc3c(N)ncnc32)[C@H](O)[C@@H]1OP(=O)(O)O` [hexanoyl-CoA], which “% acylation of AT domain” value is on record?
Its value is “good levels of AT transacylation were observed for C3–C10 substrates”.

Which “% acylation of AT domain” value does the source give for `CCCCCCCCCC(=O)SCCNC(=O)CCNC(=O)[C@H](O)C(C)(C)COP(=O)(O)OP(=O)(O)OC[C@H]1O[C@@H](n2cnc3c(N)ncnc32)[C@H](O)[C@@H]1OP(=O)(O)O` [decanoyl-CoA] here?
The value was “good levels of AT transacylation were observed for C3–C10 substrates”.

For `CC(C(=O)O)C(=O)SCCNC(=O)CCNC(=O)[C@H](O)C(C)(C)COP(=O)(O)OP(=O)(O)OC[C@H]1O[C@@H](n2cnc3c(N)ncnc32)[C@H](O)[C@@H]1OP(=O)(O)O` (some centres unmarked) [methylmalonyl-CoA], which “% acylation of AT domain” value is on record?
Its value is “methylmalonyl-CoA was able to acylate the AT domain”.

`CCCC(=O)SCCNC(=O)CCNC(=O)[C@H](O)C(C)(C)COP(=O)(O)OP(=O)(O)OC[C@H]1O[C@@H](n2cnc3c(N)ncnc32)[C@H](O)[C@@H]1OP(=O)(O)O` [butyryl-CoA] was tested. Which “% acylation of AT domain” value did it give?
The value was “good levels of AT transacylation were observed for C3–C10 substrates”.

Which “% acylation of AT domain” value does the source give for `CCC(=O)SCCNC(=O)CCNC(=O)[C@H](O)C(C)(C)COP(=O)(O)OP(=O)(O)OC[C@H]1O[C@@H](n2cnc3c(N)ncnc32)[C@H](O)[C@@H]1OP(=O)(O)O` [propionyl-CoA] here?
The value was “good levels of AT transacylation were observed for C3–C10 substrates”.

`CCCCCCCC(=O)SCCNC(=O)CCNC(=O)[C@H](O)C(C)(C)COP(=O)(O)OP(=O)(O)OC[C@H]1O[C@@H](n2cnc3c(N)ncnc32)[C@H](O)[C@@H]1OP(=O)(O)O` [octanoyl-CoA] was tested. Which “% acylation of AT domain” value did it give?
The value was “good levels of AT transacylation were observed for C3–C10 substrates”.

Source: article PMC12199272, “Biochemical dissection of a fungal highly reducing polyketide synthase condensing region reveals basis for acyl group selection” (Chemical Science, 2025)
